Assay results as given in ChEMBL document CHEMBL4765475, “Tuning the Biological Activity of RGD Peptides with Halotryptophans†” (J Med Chem, 2021).
Activity calls are given as the source filed them. The calls are words filed in the database; no cut-off is given here.

Experiments:
[1] = system: KB; experiment: Cytotoxicity in human KB cells; format: functional, cell-based; conditions: for IC50: Homo sapiens, KB
[2] = target: T1, Integrin alpha-V/beta-3 (Homo sapiens, UniProt P05106+P06756); experiment: Binding affinity to human integrin alphaVbeta3 incubated for 1 hr by ELISA based solid phase integrin binding assay; format: protein-complex assay
Target sequence in this assay (P05106 27-788 limits assumed): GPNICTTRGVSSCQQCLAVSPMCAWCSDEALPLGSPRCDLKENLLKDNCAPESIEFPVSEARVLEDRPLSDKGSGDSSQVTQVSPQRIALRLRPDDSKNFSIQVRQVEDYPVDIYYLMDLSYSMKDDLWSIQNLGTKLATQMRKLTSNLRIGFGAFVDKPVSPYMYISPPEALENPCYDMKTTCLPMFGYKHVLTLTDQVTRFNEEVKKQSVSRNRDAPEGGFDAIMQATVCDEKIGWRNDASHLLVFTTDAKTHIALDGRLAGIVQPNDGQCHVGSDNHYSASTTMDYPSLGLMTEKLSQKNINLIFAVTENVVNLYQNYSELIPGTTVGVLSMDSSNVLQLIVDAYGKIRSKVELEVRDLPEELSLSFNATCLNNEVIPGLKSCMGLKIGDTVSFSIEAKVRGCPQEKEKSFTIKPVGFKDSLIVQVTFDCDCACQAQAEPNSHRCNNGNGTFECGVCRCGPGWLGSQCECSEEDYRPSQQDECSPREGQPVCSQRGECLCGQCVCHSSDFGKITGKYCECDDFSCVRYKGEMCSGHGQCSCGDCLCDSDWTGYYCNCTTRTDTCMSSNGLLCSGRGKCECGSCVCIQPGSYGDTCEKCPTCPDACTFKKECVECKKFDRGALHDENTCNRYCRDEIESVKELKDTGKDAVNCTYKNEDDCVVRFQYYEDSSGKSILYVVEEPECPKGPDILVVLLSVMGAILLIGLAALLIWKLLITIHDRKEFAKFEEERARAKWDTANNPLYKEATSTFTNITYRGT
Target sequence in this assay (P06756 31-889 limits assumed): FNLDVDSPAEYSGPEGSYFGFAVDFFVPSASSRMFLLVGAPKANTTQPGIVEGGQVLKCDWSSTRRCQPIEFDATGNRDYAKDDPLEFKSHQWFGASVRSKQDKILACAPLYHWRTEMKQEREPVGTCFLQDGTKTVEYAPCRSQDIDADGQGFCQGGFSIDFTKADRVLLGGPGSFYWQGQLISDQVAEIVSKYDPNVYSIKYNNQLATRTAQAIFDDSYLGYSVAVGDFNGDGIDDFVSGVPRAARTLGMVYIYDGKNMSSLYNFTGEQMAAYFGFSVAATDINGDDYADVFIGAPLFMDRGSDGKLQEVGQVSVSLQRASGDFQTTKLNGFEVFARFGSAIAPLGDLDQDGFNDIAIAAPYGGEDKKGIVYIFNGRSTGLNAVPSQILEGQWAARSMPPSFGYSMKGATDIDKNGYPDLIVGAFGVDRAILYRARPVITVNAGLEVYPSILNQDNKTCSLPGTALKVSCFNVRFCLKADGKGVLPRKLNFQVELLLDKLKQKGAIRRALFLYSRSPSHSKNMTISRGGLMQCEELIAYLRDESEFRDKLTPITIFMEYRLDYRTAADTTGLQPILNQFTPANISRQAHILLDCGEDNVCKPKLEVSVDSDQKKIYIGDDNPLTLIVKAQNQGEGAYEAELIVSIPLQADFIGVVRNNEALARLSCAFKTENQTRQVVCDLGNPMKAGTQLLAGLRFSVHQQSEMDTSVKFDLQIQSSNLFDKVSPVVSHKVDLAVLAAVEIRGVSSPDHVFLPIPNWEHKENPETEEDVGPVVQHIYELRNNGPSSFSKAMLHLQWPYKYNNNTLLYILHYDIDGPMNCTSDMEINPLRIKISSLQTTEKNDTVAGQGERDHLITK
Target sequence in this assay (P06756 891-1048 limits assumed): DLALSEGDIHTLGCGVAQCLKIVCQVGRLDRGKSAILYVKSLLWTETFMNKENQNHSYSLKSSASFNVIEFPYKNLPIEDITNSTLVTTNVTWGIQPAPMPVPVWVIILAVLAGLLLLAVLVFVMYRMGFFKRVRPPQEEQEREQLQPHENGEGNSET

[3] = target: Integrin alpha-5/beta-1 (Homo sapiens, UniProt P05556+P08648); experiment: Binding affinity to human integrin alpha5beta1 incubated for 1 hr by ELISA based solid phase integrin binding assay; format: protein-complex assay
[4] = Selectivity index, ratio of IC50 for binding affinity to human integrin alpha5beta1 to IC50 for binding affinity to human integrin alphaVbeta3
[5] = target: Integrin alpha-V/beta-6 (Homo sapiens, UniProt P06756+P18564); experiment: Binding affinity to human integrin alphaVbeta6 incubated for 1 hr by ELISA based solid phase integrin binding assay; format: protein-complex assay
[6] = target: Integrin alpha-V/beta-8 (Homo sapiens, UniProt P06756+P26012); experiment: Binding affinity to human integrin alphaVbeta8 incubated for 1 hr by ELISA based solid phase integrin binding assay; format: protein-complex assay
[7] = target: Integrin alpha-IIb/beta-3 (Homo sapiens, UniProt P05106+P08514); experiment: Binding affinity to human integrin alpha2bbeta3 incubated for 1 hr by ELISA based solid phase integrin binding assay; format: protein complex
[8] = target: T1, Integrin alpha-V/beta-3; experiment: Binding affinity to integrin alphaVbeta3 expressed in human M21 cells at 250 uM incubated for 30 mins by confocal microscopy; format: cell-based

Chain of Integrin alpha-IIb/beta-3 (P05106 27-788 limits assumed): as the sequence (P05106 27-788 limits assumed) above
Chain of Integrin alpha-IIb/beta-3 (P08514 32-887 limits assumed): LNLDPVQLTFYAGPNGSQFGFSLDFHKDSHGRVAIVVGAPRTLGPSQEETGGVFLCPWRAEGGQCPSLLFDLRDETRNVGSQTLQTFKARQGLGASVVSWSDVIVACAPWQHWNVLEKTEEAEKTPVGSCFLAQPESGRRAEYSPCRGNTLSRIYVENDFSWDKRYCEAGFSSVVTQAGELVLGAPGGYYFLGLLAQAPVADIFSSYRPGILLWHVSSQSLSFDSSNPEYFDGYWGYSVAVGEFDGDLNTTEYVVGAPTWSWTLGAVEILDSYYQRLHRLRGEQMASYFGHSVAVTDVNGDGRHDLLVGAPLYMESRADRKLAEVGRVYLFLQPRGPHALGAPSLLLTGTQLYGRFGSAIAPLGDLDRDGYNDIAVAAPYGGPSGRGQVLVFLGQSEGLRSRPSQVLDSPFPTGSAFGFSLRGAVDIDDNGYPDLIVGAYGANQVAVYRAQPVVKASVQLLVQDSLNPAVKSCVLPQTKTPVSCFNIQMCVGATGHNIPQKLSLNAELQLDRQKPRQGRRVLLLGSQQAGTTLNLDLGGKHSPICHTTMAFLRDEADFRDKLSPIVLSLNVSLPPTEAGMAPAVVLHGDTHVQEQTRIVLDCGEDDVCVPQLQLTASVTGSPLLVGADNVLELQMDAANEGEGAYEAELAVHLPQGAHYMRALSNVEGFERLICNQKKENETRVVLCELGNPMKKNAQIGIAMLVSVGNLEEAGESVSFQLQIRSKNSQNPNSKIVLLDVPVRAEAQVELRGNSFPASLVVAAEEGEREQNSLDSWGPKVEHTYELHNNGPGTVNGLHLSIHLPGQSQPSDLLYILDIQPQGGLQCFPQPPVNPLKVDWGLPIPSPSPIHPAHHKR
Chain of Integrin alpha-IIb/beta-3 (P08514 891-1039 limits assumed): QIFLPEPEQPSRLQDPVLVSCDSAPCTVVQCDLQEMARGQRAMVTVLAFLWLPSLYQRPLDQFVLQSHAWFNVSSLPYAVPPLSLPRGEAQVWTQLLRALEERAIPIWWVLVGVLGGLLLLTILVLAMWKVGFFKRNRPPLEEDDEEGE
Chain of Integrin alpha-V/beta-8 (P06756 31-889 limits assumed): as the sequence (P06756 31-889 limits assumed) above
Chain of Integrin alpha-V/beta-8 (P06756 891-1048 limits assumed): as the sequence (P06756 891-1048 limits assumed) above
Chain of Integrin alpha-V/beta-8 (P26012 43-769 limits assumed): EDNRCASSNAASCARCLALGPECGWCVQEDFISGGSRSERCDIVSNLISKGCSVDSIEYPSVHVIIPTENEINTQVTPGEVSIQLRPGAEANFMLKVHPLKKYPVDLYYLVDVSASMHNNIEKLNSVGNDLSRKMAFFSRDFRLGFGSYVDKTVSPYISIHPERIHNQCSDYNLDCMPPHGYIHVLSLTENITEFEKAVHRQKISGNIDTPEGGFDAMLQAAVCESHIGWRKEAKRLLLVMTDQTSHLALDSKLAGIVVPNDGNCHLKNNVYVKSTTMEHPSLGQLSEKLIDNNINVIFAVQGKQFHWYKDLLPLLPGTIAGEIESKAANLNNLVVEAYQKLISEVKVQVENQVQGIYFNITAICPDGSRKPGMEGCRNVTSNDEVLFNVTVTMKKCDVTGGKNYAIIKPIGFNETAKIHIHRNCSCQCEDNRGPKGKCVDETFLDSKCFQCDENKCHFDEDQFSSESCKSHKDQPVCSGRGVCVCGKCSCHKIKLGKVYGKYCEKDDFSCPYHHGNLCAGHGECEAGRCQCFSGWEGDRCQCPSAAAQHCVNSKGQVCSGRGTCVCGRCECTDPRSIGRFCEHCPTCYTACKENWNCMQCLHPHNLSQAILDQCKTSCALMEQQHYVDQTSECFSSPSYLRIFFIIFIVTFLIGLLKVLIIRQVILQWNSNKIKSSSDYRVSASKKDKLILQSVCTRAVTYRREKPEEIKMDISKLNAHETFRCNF
Chain of Integrin alpha-V/beta-6 (P06756 31-889 limits assumed): as the sequence (P06756 31-889 limits assumed) above
Chain of Integrin alpha-V/beta-6 (P06756 891-1048 limits assumed): as the sequence (P06756 891-1048 limits assumed) above
Chain of Integrin alpha-V/beta-6 (P18564 22-788 limits assumed): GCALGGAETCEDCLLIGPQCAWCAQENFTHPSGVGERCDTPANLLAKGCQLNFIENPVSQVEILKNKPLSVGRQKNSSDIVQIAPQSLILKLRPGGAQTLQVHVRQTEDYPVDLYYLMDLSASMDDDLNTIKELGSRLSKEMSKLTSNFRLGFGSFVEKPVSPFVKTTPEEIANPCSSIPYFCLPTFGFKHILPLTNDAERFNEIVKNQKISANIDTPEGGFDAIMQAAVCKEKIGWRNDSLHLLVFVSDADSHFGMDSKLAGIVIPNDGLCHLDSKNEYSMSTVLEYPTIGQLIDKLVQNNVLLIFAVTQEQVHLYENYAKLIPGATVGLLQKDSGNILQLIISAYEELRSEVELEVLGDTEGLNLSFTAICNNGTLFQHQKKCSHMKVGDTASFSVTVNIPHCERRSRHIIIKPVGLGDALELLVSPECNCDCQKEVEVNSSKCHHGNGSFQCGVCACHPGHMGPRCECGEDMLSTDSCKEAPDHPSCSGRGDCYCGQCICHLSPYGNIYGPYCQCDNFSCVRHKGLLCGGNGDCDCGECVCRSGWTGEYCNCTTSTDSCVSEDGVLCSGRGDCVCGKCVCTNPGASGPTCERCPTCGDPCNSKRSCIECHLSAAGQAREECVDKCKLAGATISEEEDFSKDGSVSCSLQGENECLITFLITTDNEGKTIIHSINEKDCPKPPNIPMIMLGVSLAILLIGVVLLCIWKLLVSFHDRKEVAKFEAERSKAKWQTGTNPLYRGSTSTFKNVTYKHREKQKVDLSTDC

| SMILES | IC50 [2] | IC50 [3] | Ratio IC50 [4] | further results |
| --- | --- | --- | --- | --- |
| COc1ccc(C[C@H]2NC(=O)/C=C/C[C@@H]([C@H](C)[C@@H]3O[C@H]3c3ccccc3)OC(=O)[C@H](CC(C)C)OC(=O)C(C)(C)CNC2=O)cc1Cl |  |  |  | IC50 [1]: 0.009 nM |
| CC(C)[C@@H]1NC(=O)[C@@H](Cc2c[nH]c3c(Br)cccc23)NC(=O)[C@H](CC(=O)O)NC(=O)CNC(=O)[C@H](CCCNC(=N)N)NC1=O | 0.62 nM | 74.3 nM | 120 |  |
| CC(C)[C@@H]1NC(=O)[C@@H](Cc2c[nH]c3c(-c4ccc(C(=O)O)cc4)cccc23)NC(=O)[C@H](CC(=O)O)NC(=O)CNC(=O)[C@H](CCCNC(=N)N)NC1=O | 0.52 nM | 22 nM | 42 | IC50 [5]: 54 nM; IC50 [6]: 39.2 nM; IC50 [7]: > 10000 nM |
| CC(C)[C@@H]1NC(=O)[C@@H](Cc2c[nH]c3ccccc23)NC(=O)[C@H](CC(=O)O)NC(=O)CNC(=O)[C@H](CCCNC(=N)N)NC1=O | 1.15 nM | 9.9 nM | 8.6 |  |
| O=[N+]([O-])/C=C1\NCCN1Cc1ccc(Br)nc1 |  |  |  | LC90 [1]: 1.6 ppm |
| CC(C)[C@@H]1NC(=O)[C@@H](Cc2c[nH]c3cc(Cl)ccc23)NC(=O)[C@H](CC(=O)O)NC(=O)CNC(=O)[C@H](CCCNC(=N)N)NC1=O | 0.24 nM | 39.1 nM | 163 |  |
| O=[N+]([O-])/C=C1\NCCN1Cc1ccc(Cl)nc1 |  |  |  | LC90 [1]: 0.32 ppm |
| CC(C)[C@@H]1NC(=O)[C@@H](Cc2c[nH]c3cc(Br)ccc23)NC(=O)[C@H](CC(=O)O)NC(=O)CNC(=O)[C@H](CCCNC(=N)N)NC1=O | 0.53 nM | 43.3 nM | 82 |  |
| O=[N+]([O-])/C=C1\NCCN1Cc1cccnc1 |  |  |  | LC90 [1]: 8 ppm |
| O=[N+]([O-])/C=C1\NCCN1Cc1ccc(F)nc1 |  |  |  | LC90 [1]: 0.32 ppm |
| CC(C)[C@@H]1NC(=O)[C@@H](Cc2c[nH]c3c(-c4c5ccccc5cc5ccccc45)cccc23)NC(=O)[C@H](CC(=O)O)NC(=O)CNC(=O)[C@H](CCCNC(=N)N)NC1=O | 0.59 nM | 471 nM | 798 | IC50 [5]: 32 nM; IC50 [6]: 193 nM; IC50 [7]: > 10000 nM |
| CC(C)[C@@H]1NC(=O)[C@@H](Cc2c[nH]c3c(F)cccc23)NC(=O)[C@H](CC(=O)O)NC(=O)CNC(=O)[C@H](CCCNC(=N)N)NC1=O | 0.35 nM | 58.3 nM | 167 |  |
| CC(C)[C@@H]1NC(=O)[C@@H](Cc2c[nH]c3c(-c4cccc(N)c4)cccc23)NC(=O)[C@H](CC(=O)O)NC(=O)CNC(=O)[C@H](CCCNC(=N)N)NC1=O | 0.52 nM | 610 nM | 1170 | IC50 [5]: 36 nM; IC50 [6]: 220 nM; IC50 [7]: > 10000 nM |
| CC(C)[C@@H]1NC(=O)[C@@H](Cc2c[nH]c3c(I)cccc23)NC(=O)[C@H](CC(=O)O)NC(=O)CNC(=O)[C@H](CCCNC(=N)N)NC1=O | 0.43 nM | 49.2 nM | 114 |  |
| CC(C)[C@@H]1C(=O)N[C@@H](CCCNC(=N)N)C(=O)NCC(=O)N[C@@H](CC(=O)O)C(=O)N[C@@H](Cc2c[nH]c3c(Br)cccc23)C(=O)N1C | 311 nM | > 10000 nM |  |  |
| COc1ccc(-c2cccc3c(C[C@H]4NC(=O)[C@H](CC(=O)O)NC(=O)CNC(=O)[C@H](CCCNC(=N)N)NC(=O)[C@H](C(C)C)NC4=O)c[nH]c23)cc1 | 0.74 nM | 66 nM | 89 | IC50 [5]: 50 nM; IC50 [6]: 76.5 nM; IC50 [7]: > 10000 nM |
| COc1ccc(C[C@H]2NC(=O)/C=C/C[C@@H]([C@H](C)[C@@H]3O[C@H]3c3ccccc3)OC(=O)[C@H](CC(C)C)OC(=O)C(C)(C)CNC2=O)cc1 |  |  |  | IC50 [1]: 0.073 nM |
| CC(C)[C@H]1C(=O)N[C@@H](CCCNC(=N)N)C(=O)NCC(=O)N[C@@H](CC(=O)O)C(=O)N[C@H](Cc2c[nH]c3c(Br)cccc23)C(=O)N1C | 1.37 nM | 10.2 nM | 7.4 |  |
| CC(C)[C@@H]1NC(=O)[C@@H](Cc2c[nH]c3c(Cl)cccc23)NC(=O)[C@H](CC(=O)O)NC(=O)CNC(=O)[C@H](CCCNC(=N)N)NC1=O | 0.34 nM | 91.3 nM | 269 |  |
| CC(C)[C@@H]1NC(=O)[C@@H](Cc2c[nH]c3c(-c4ccc5ccc6cccc7ccc4c5c67)cccc23)NC(=O)[C@H](CC(=O)O)NC(=O)CNC(=O)[C@H](CCCNC(=N)N)NC1=O |  |  | 407 | IC50 [5]: 299 nM; IC50 [6]: 1010 nM; IC50 [7]: > 10000 nM; Activity [8]: Active |
| CC(C)[C@H]1NC(=O)[C@H](Cc2c[nH]c3c(Br)cccc23)NC(=O)[C@H](CC(=O)O)NC(=O)CNC(=O)[C@H](CCCNC(=N)N)NC1=O | 0.53 nM | 472 nM | 891 |  |
